Laboratory results taken from ChEMBL document CHEMBL3351513, “Norbornane-based nucleoside and nucleotide analogues locked in North conformation” (Bioorg Med Chem, 2015).
Calls of active or inactive are those of the source. The rule behind the calls is not given here.

How the values were obtained:
[1] = system: L1210; assay: Cytostatic activity against mouse L1210 cells after 48 hrs by Coulter counting; conditions: L1210, 48 h
[2] = system: HeLa; assay: Cytostatic activity against human HeLa cells after 72 hrs by Coulter counting
[3] = system: CCRF-CEM; assay: Cytostatic activity against human CEM cells after 72 hrs by Coulter counting
[4] = system: Coxsackievirus B4; assay: Antiviral activity against Coxsackievirus B4 infected in african green monkey Vero cells assessed as inhibition of virus-induced cytopathicity; format: functional, organism-based; conditions: for EC50: Enterovirus B
[5] = Cytotoxicity against african green monkey Vero cells; format: cell-based; conditions: chlorocebus sabaeus
[6] = Cytotoxicity against human CEM cells infected with HIV1; format: cell-based, CCRF-CEM; conditions: CEM cells infected with HIV-1
[7] = system: Human immunodeficiency virus 1; assay: Antiviral activity against HIV1 3B infected in human CEM cells assessed as inhibition of virus-induced syncytium formation by microscopy; conditions: Human immunodeficiency virus 1, 3B, CCRF-CEM
[8] = Inhibition of human PI4K3beta expressed in Escherichia coli BL21 after 60 mins by ADP-GloTM Kinase Assay
[9] = Cytotoxicity against cat CRFK cells; format: cell-based, Felis catus
[10] = system: Felid alphaherpesvirus 1; assay: Antiviral activity against Feline herpesvirus 1 infected in cat CRFK cells assessed as inhibition of virus induced cytopathicity; conditions: Felid alphaherpesvirus 1, CRFK
[11] = system: Influenza A virus; assay: Antiviral activity against influenza A virus H1N1 infected in MDCK cells assessed as inhibition of virus-induced cytopathic effect
[12] = system: Human immunodeficiency virus 2; assay: Antiviral activity against HIV2 ROD infected in human CEM cells assessed as inhibition of virus-induced syncytium formation by microscopy; conditions: Human immunodeficiency virus 2, ISOLATE ROD, CCRF-CEM
[13] = Inhibition of human PI4K3alpha expressed in Escherichia coli BL21 after 60 mins by ADP-GloTM Kinase Assay
[14] = system: MDCK; assay: Cytotoxicity against MDCK cells; conditions: Canis lupus familiaris
[15] = Cytotoxicity against human CEM cells infected with HIV2; format: cell-based, CCRF-CEM
[16] = system: Influenza A virus; assay: Antiviral activity against influenza A virus H1N1 infected in MDCK cells assessed as inhibition of virus-induced cytopathic effect at 100 uM; format: functional, organism-based
[17] = system: Human immunodeficiency virus 2; assay: Antiviral activity against HIV2 ROD infected in human CEM cells assessed as inhibition of virus-induced syncytium formation at 100 uM by microscopy; format: functional, organism-based; conditions: ISOLATE ROD, CCRF-CEM
[18] = system: Human immunodeficiency virus 1; assay: Antiviral activity against HIV1 3B infected in human CEM cells assessed as inhibition of virus-induced syncytium formation at 100 uM by microscopy; format: functional, organism-based; conditions: CCRF-CEM
[19] = system: Felid alphaherpesvirus 1; assay: Antiviral activity against Feline herpesvirus 1 infected in cat CRFK cells assessed as inhibition of virus induced cytopathicity at 100 uM; format: functional, organism-based

| SMILES | IC50 [1] [µM] | IC50 [2] [µM] | IC50 [3] [µM] | inhibition [4] | further results |
| --- | --- | --- | --- | --- | --- |
| COC(=O)[C@H](C)NP(=O)(OC[C@]12CC[C@H](C1)[C@H](n1cnc3c(NC4CC4)ncnc31)C2)Oc1ccccc1 (relative stereo) | 129 | 136 | 78 | – | – |
| Nc1nc(N)c2ncn([C@@H]3C[C@@]4(CO)CC[C@@H]3C4)c2n1 (relative stereo) | 179 | 190 | 174 | – | – |
| OC[C@]12CC[C@H](C1)[C@H](n1cnc3c(Cl)ncnc31)C2 (relative stereo) | – | – | – | – | EC50 [4]: 25 µM; CC50 [5]: > 359 µM |
| OC[C@]12CC[C@H](C1)[C@H](n1cnc3c(NC4CC4)ncnc31)C2 (relative stereo) | – | – | – | inactive | – |
| O=c1[nH]cc(F)c(=O)[nH]1 [FLUOROURACIL] | – | 2.6 | – | – | – |
| CN(C)c1ncnc2c1ncn2[C@@H]1C[C@@]2(CO)CC[C@@H]1C2 (relative stereo) | – | – | – | inactive | – |
| Nc1ncnc2c1ncn2[C@@H]1C[C@@]2(CO)CC[C@@H]1C2 | 408 | 609 | > 386 | inactive | CC50 [6]: > 386 µM; EC50 [7]: 100 µM; IC50 [8]: > 100 µM; CC50 [9]: > 386 µM; EC50 [10]: 58 µM; EC50 [11]: 179 µM; EC50 [12]: 231 µM; IC50 [13]: > 100 µM; EC50 [14]: > 386 µg/mL; CC50 [15]: > 386 µM |
| Nc1nc(Cl)c2ncn([C@@H]3C[C@@]4(CO)CC[C@@H]3C4)c2n1 (relative stereo) | 139 | > 340 | 88 | – | EC50 [4]: 31 µM; CC50 [5]: > 359 µM |
| OC[C@]12CC[C@H](C1)[C@H](n1cnc3c(=S)[nH]cnc31)C2 (relative stereo) | – | – | – | inactive | – |
| COC(=O)[C@H](C)NP(=O)(OC[C@]12CC[C@H](C1)[C@H](n1cnc3c(N)ncnc31)C2)Oc1ccccc1 (relative stereo) | 160 | > 200 | ≥ 200 | – | inhibition [16]: inactive; inhibition [17]: inactive; inhibition [18]: inactive; inhibition [19]: inactive |
| Nc1nc(NC2CC2)c2ncn([C@@H]3C[C@@]4(CO)CC[C@@H]3C4)c2n1 (relative stereo) | 146 | 101 | 124 | – | – |
